Here are results for 23 compounds from patent publication US20140155410A1 (GlaxoSmithKline LLC, priority 2008, published 2014).

One test concerns the target T1, GST-tagged FAK (Homo sapiens, UniProt Q05397).
T1 construct: purchased Invitrogen PV3832
The test is described as follows: Biochemical assay for FAK activity, Assay 1: phosphorylation of peptide substrate with radio-labeled ATP. To be noted: 5 μM ATP, 30 min pre-incubation; for IC50: read-out: Assay 1 FAK TRF PXC50 (converted). As for the experimental part: GST-tagged (glutathione S-transferase-tagged) FAK was purchased from Invitrogen (PV3832) (www.invitrogen.com). […] To measure inhibitors of FAK, compounds were first prepared as a 10× stock in 10% DMSO. […] A 6-nM GST-FAK solution was prepared in 1.1× reaction buffer containing 44 mM HEPES, pH=7.2, 11 mM MgCl2, 2.2 mM MnCl2, 1.1 mM DTT and 0.011% Tween-20. Then, 20 μL of the 6 nM GST-FAK solution were pre-incubated with the compounds for 30 min at room temperature. […] The reaction was allowed to proceed for 90 min before being quenched with 40 μL of 1% H3PO4. A portion of the reaction mixture (60 μL) was transferred to a phospho-cellulose filter plate (Millipore; www.millipore.com, MAPHNOB50) and incubated for 20 minutes. The plate was filtrated, washed three times using 150 μL of 0.5% H3PO4 and dried at 50° C. for 30 min. After the addition of 60 μL Microscint-20 to the plate, radioactivity was measured using a TopCount (PerkinElmer; www.PerkinElmer.com).

The target of test [1] is T2, Full length Human FAK (Flag-His-TEV-FAK1) (Homo sapiens, UniProt Q05397).
T2 construct: Full length Human FAK was expressed using baculovirus in Sf9 cells; made in house; host or cells: baculovirus in Sf9 cells
The test is described as follows: Biochemical assay for FAK activity, Assay 2: LANCE Ultra ULight peptide phosphorylation, 665 nm/615 nm ratio. To be noted: Flag-His-TEV-FAK1, 10 μM ATP, 30 min pre-incubation; for IC50: read-out: Assay 2 FAK H 31284A TRF PXC50 (converted).

T2 sequence (Q05397 whole entry): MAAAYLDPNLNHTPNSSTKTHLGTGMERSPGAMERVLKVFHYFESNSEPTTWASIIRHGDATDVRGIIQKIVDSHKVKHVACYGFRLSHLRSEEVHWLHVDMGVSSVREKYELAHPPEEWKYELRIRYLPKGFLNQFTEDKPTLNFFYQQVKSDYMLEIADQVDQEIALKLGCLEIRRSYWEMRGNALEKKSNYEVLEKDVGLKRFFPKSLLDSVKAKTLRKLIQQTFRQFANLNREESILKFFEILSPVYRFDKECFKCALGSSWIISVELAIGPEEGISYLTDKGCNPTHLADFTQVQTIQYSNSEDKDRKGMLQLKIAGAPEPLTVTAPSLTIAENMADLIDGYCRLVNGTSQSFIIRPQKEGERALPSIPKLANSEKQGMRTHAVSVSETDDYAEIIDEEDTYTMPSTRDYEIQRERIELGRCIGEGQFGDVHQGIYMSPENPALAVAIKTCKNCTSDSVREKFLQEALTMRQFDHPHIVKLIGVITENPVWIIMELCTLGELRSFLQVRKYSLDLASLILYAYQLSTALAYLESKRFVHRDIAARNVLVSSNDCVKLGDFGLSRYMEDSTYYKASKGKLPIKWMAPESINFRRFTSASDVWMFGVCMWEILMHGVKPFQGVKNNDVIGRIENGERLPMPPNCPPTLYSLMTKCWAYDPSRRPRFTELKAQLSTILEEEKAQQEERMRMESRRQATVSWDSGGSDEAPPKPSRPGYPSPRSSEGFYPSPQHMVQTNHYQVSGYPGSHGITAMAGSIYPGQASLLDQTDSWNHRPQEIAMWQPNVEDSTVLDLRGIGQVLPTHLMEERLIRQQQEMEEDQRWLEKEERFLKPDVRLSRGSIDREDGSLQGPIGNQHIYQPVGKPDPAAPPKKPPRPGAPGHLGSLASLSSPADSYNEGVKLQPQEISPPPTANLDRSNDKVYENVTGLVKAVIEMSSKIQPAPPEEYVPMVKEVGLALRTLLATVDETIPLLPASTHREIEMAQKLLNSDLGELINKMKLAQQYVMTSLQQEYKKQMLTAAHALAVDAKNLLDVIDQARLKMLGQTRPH
T1 sequence (Q05397 whole entry): as above

In the case of `CNC(=O)c1ccccc1Nc1cc(Nc2cnn(C)c2C)ncc1Cl` [Example 59, 2-({5-Chloro-2-[(1,5-dimethyl-1H-pyrazol-4-yl)amino]-4-pyridinyl}amino)-N-methylbenzamide], the IC50 at GST-tagged FAK was 0.631 nM; in test [1], 5.01 nM.
Turning to “2-({5-Chloro-2-[(1-ethyl-1H-pyrazol-5-yl)amino]-4-pyridinyl}amino)-N-ethylbenzamide [Example 44]”, the “Assay 1 FAK TRF PXC50” value at GST-tagged FAK is given as 8.2. For the same compound, in test [1], the “Assay 2 FAK H 31284A TRF PXC50” value worked out at 7.2.
The matching figures for “2-({5-Chloro-2-[(1,3-dimethyl-1H-pyrazol-4-yl)amino]-4-pyridinyl}amino)-N-methylbenzamide [Example 27]”: 8.7 and 8.1.
For the compound `CNC(=O)c1ccccc1Nc1cc(Nc2cc(C(C)(C)C)nn2C)ncc1Cl` [Example 14, 2-[(5-Chloro-2-{[3-(1,1-dimethylethyl)-1-methyl-1H-pyrazol-5-yl)amino]-4-pyridinyl}amino]-N-methylbenzamide], the IC50 on GST-tagged FAK is 2.51 nM; in test [1], 20 nM.
The matching figures for `CCn1nc(CO)cc1Nc1cc(Nc2ccccc2C(=O)NC)c(Cl)cn1` [Example 15, 2-[(5-Chloro-2-{[1-ethyl-3-(hydroxymethyl)-1H-pyrazol-5-yl]amino}-4-pyridinyl)amino]-N-methylbenzamide]: 2.51 nM and 20 nM.
Turning to `CNC(=O)c1cc(Cl)ccc1Nc1cc(Nc2cc(C)nn2C)ncc1Cl` [Example 11, 5-Chloro-2-({5-chloro-2-[(1,3-dimethyl-1H-pyrazol-5-yl)amino]-4-pyridinyl}amino)-N-methylbenzamide], the IC50 at GST-tagged FAK was 2 nM; in test [1], 6.31 nM.
With `CCn1nccc1Nc1cc(Nc2ccc(N3CCN(CCO)CC3)cc2C(=O)NC)c(Cl)cn1` [Example 67, 2-({5-Chloro-2-[(1-ethyl-1H-pyrazol-5-yl)amino]-4-pyridinyl}amino)-5-[4-(2-hydroxyethyl)-1-piperazinyl]-N-methylbenzamide], the IC50 on GST-tagged FAK is 63.1 nM; in test [1], 5.01 nM.
The matching figures for `CCn1nc(C)cc1Nc1cc(Nc2ccccc2C(=O)NC)c(C(F)(F)F)cn1` [Example 32, 2-{[2-[(1-Ethyl-3-methyl-1H-pyrazol-5-yl)amino]-5-(trifluoromethyl)-4-pyridinyl]amino}-N-methylbenzamide]: 0.398 nM and 1 nM.
In the case of `CNC(=O)c1ccccc1Nc1cc(Nc2cc(C)nn2C(C)C)ncc1Cl` [Example 4, 2-[(5-Chloro-2-{[3-methyl-1-(1-methylethyl)-1H-pyrazol-5-yl]amino}-4-pyridinyl)amino]-N-methylbenzamide], the IC50 on GST-tagged FAK is 1 nM; in test [1], 6.31 nM.
Consider `CCOC(=O)c1cc(Nc2cc(Nc3ccccc3C(=O)NC)c(Cl)cn2)n(CC)n1` [Example 17, Ethyl 5-{[5-chloro-4-({2-[(methylamino)carbonyl]phenyl}amino)-2-pyridinyl]amino}-1-ethyl-1H-pyrazole-3-carboxylate], for which the figures for the IC50 (on GST-tagged FAK; in test [1]) were 1.26 nM and 39.8 nM, respectively.
On the same counts, the results for `CCNC(=O)c1ccccc1Nc1cc(Nc2cc(C)nn2CC)ncc1Cl` [Example 42, 2-({5-Chloro-2-[(1-ethyl-3-methyl-1H-pyrazol-5-yl)amino]-4-pyridinyl}amino)-N-ethylbenzamide] are 12.6 nM and 50.1 nM.
On the same counts, the results for `CCn1nc(C(=O)NC)cc1Nc1cc(Nc2ccccc2C(=O)NC)c(Cl)cn1` [Example 20, 5-{[5-Chloro-4-({2-[(methylamino)carbonyl]phenyl}amino)-2-pyridinyl]amino}-1-ethyl-N-methyl-1H-pyrazole-3-carboxamide] are 10 nM and 39.8 nM.
The matching figures for `CONC(=O)c1ccccc1Nc1cc(Nc2cc(C)nn2C(C)C)ncc1Cl` [Example 41, 2-[(5-Chloro-2-{[3-methyl-1-(1-methylethyl)-1H-pyrazol-5-yl]amino}-4-pyridinyl)amino]-N-(methyloxy)benzamide]: 0.398 nM and 2 nM.
On to `CNC(=O)c1ccccc1Nc1cc(Nc2cc(C)nn2CCO)ncc1Cl` [Example 16, 2-[(5-Chloro-2-{[1-(2-hydroxyethyl)-3-methyl-1H-pyrazol-5-yl]amino}-4-pyridinyl)amino]-N-methylbenzamide], for which the IC50 on GST-tagged FAK is 1.26 nM; in test [1], 20 nM.
On the same counts, the results for `CONC(=O)c1ccccc1Nc1cc(Nc2cc(C)nn2C)ncc1Cl` [Example 36, 2-({5-Chloro-2-[(1,3-dimethyl-1H-pyrazol-5-yl)amino]-4-pyridinyl}amino)-N-(methyloxy)benzamide] are 0.398 nM and 1.58 nM.
The matching figures for `CNC(=O)c1cc(F)c(F)cc1Nc1cc(Nc2cc(C)nn2C)ncc1Cl` [Example 9, 2-({5-Chloro-2-[(1,3-dimethyl-1H-pyrazol-5-yl)amino]-4-pyridinyl}amino)-4,5-difluoro-N-methylbenzamide]: 1 nM and 6.31 nM.
As to `Cc1cc(Nc2cc(Nc3ccccc3C(=O)NOCCN(C)C)c(Cl)cn2)n(C)n1` [Example 38, 2-({5-Chloro-2-[(1,3-dimethyl-1H-pyrazol-5-yl)amino]-4-pyridinyl}amino)-N-{[2-(dimethylamino)ethyl]oxy}benzamide], the values for the IC50 (on GST-tagged FAK; in test [1]) were 251 nM and 1000 nM, respectively.
The matching figures for `CCn1nc(C)cc1Nc1cc(Nc2ccccc2C(=O)NC)c(Cl)cn1` [Example 13, 2-({5-Chloro-2-[(1-ethyl-3-methyl-1H-pyrazol-5-yl)amino]-4-pyridinyl}amino)-N-methylbenzamide]: 0.501 nM and 2 nM.
Turning to `CCn1nc(C(=O)N(C)CCN(C)C)cc1Nc1cc(Nc2ccccc2C(=O)NC)c(Cl)cn1` [Example 25, 5-{[5-Chloro-4-({2-[(methylamino)carbonyl]phenyl}amino)-2-pyridinyl]amino}-N-[2-(dimethylamino)ethyl]-1-ethyl-N-methyl-1H-pyrazole-3-carboxamide], the results for the IC50 (on GST-tagged FAK; in test [1]) were 2.51 nM and 31.6 nM, respectively.
On to `CNC(=O)c1ccccc1Nc1cc(Nc2cc(C)nn2C)ncc1C(F)(F)F` [Example 28, 2-{[2-[(1,3-Dimethyl-1H-pyrazol-5-yl)amino]-5-(trifluoromethyl)-4-pyridinyl]amino}-N-methylbenzamide], for which the IC50 was 0.398 nM on GST-tagged FAK and 2.51 nM in test [1].
In the case of `CNC(=O)c1ccccc1Nc1cc(Nc2cc(C3CC3)nn2C)ncc1Cl` [Example 6, 2-({5-Chloro-2-[(3-cyclopropyl-1-methyl-1H-pyrazol-5-yl)amino]-4-pyridinyl}amino)-N-methylbenzamide], the IC50 on GST-tagged FAK is 1.26 nM; in test [1], 5.01 nM.
The matching figures for `CCn1nccc1Nc1cc(Nc2ccccc2C(=O)NC)c(C(F)(F)F)cn1` [Example 29, 2-{[2-[(1-Ethyl-1H-pyrazol-5-yl)amino]-5-(trifluoromethyl)-4-pyridinyl]amino}-N-methylbenzamide]: 0.501 nM and 2 nM.
The matching figures for `CCn1nc(C)cc1Nc1cc(Nc2ccccc2C(=O)NOC)c(Cl)cn1` [Example 39, 2-({5-Chloro-2-[(1-ethyl-3-methyl-1H-pyrazol-5-yl)amino]-4-pyridinyl}amino)-N-(methyloxy)benzamide]: 0.398 nM and 5.01 nM.
